Data on one molecule can be found in patent US11590117B2, “Treatment of a hematologic malignancy with 2-(4-chlorophenyl)-n-((2-(2,6-dioxopiperidin-3-yl)-1-oxoisoindolin-5-yl)methyl)-2,2-difluoroacetamide” (priority 2016, dated 2023).

Structures are written as SMILES.

Assay [1] relates to Bone marrow mononuclear cells (BMMCs) from high risk MDS patients. Briefly: MDS liquid culture, viable cell counting. Format: cell-based, human. The note with it: 24 hours exposure, 37, 111, 333 and 1000 nM, dose dependent, maintained at least a week. The procedure:
Methods. The effect of Compound 1 on high risk MDS samples was measured in an in vitro liquid culture as well as by colony assays in order to better define its effect on stem/progenitor cells. Bone marrow mononuclear cells (BMMCs) from high risk MDS patients were cultured in vitro in CellGro medium (GellGenix) supplemented with hLDL (40 μg/mL), SCF (50 ng/mL), FLT3 […] (50 ng/mL), IL-3 (10 ng/mL), IL-6 (25 ng/mL) and TPO (100 ng/mL), all from Peprotech. During culture, cells were exposed to different concentrations of Compound 1 (37, 111, 333 and 1000 nM) or DMSO control. After 24 hours, cells were washed twice to remove compound and maintained in culture up to one week, performing viable cell counting on days 1, 3 and 7. Just after compound washout, […] per condition were collected for colony forming assays and another […] were stained for intracellular flow cytometry.

For assay [2], the system named is HL-60 human AML cells. In words: HL-60 IV AML xenograft model, bone marrow histology. Format: in vivo, SCID mice. The procedure: In this study, different Compound 1 dosing schedules (5 mg/kg, BID×5 consecutive days versus 2.5 mg/kg, BID×10 consecutive days) were studied while maintaining the total amount of drug administered constant. Vehicle control animals were treated with 5% N-methyl-2-pyrrolidone (NMP)/45% PEG 400/50% saline. Treatment was initiated 6 weeks post inoculation. Vehicle and Compound 1 treatment groups were terminated either on Day 7 (following 5 consecutive days of 5 mg/kg twice a day [BID] Compound 1) or on Day 11 (following 10 consecutive days of 2.5 mg/kg BID Compound 1) post treatment initiation. The primary endpoint for the study was percentage of hCD33+/CD45+ cells in the BM by FACS analysis. Additional endpoints included cell viability, body weight, and BM histology.
The alternate femur of vehicle and Compound 1-treated animals was fixed in formalin, embedded in paraffin and processed for hematoxylin and eosin staining. A single tissue section/animal was used for histological analysis and the percent of tumor in viable bone marrow was estimated based on the area occupied by tumor cells. There was a significant 35% reduction (p<0.006 relative to the vehicle control) in the percentage of viable tumor in the bone marrow with Compound 1 (5 mg/kg) BID×5 treatment. […]

Regarding `O=C1CCC(N2Cc3cc(CNC(=O)C(F)(F)c4ccc(Cl)cc4)ccc3C2=O)C(=O)N1` (stereo not drawn) [Compound 1, 2-(4-chlorophenyl)-N-((2-(2,6-dioxopiperidin-3-yl)-1-oxoisoindolin-5-yl)methyl)-2,2-difluoroacetamide], the “number of viable cells” value in assay [1] is “significantly reduced”. The “reduction in percentage of viable tumor in the bone marrow (histology)” value was found to be 23.5% in assay [2] (2.5 mg/kg BID×10, relative to vehicle control, not statistically significant) and 35% in assay [2] (5 mg/kg BID×5, p<0.006 relative to vehicle control).
